Laboratory results taken from article PMC12668308, “A Novel Antimalarial Agent that Inhibits Protein Synthesis in Plasmodium falciparum” (Angewandte Chemie (International Ed. in English), 2025).
Read-outs that look alike come from different tables or passages of the source.

Assays:
Dd2b2^WT = experiment: [3H]-hypoxanthine incorporation assay; assay type: cell-based, Plasmodium falciparum; settings: Plasmodium falciparum, 72 h, read-out: Parent (Dd2b2^WT) IC50
Procedure: (§1) P. falciparum asexual blood stage parasites were cultured in human red blood cells (RBC, Blutspende SRK, Zurich) at a hematocrit of 5% in RPMI 1640 medium. The RPMI 1640 medium (ThermoFisher Scientific #51800−043) was supplemented with the following: 24 mM NaHCO3 (pH 7.3, Sigma-Aldrich #31437−500G-R), 25 mM Hepes (Sigma-Aldrich #H4034−500G), 0.36 mM hypoxanthine (Sigma-Aldrich # H9377−25G), 100 µg mL^-1 neomycin (Sigma-Aldrich #N6386−100G) and 0.5% Albumax II (Thermo Fisher #11021−045). Additionally, 2 mM choline chloride (279 mg/L, Sigma-Aldrich #C7527−100G) was added to the culture to block the induction of sexual commitment as described. ^[31^] The RPMI 1640 medium and components were dissolved in water (Milli-Q purified), stirred for at least 3 h, and then sterile filtered (0.22 μm pore size) with a bottle top filter (Corning # 431118). Parasite cultures were maintained in an atmosphere of 3% O2, 4% CO2, and 93% N2 in air-tight chambers at 37 °C. The [^3H]-hypoxanthine incorporation assay was used to test compound activity in the specific parasite lines as described.^[32^] Briefly, compounds were dissolved in DMSO (10 mM) and diluted in a hypoxanthine-free culture medium. A limiting dilution was performed over a 64-fold range (6-step twofold dilution) in a 96-well plate in duplicates. For every starting concentration, a limiting dilution was performed over a 64-fold range (6-step twofold dilution) in a 96-well plate in two biological duplicates. Parasites were added at 100 µL to each well containing the compound to obtain a final parasitemia of 0.3% and haematocrit of 1.25%. The plates were incubated for 48 h before 0.25 µCi of [^3H]-hypoxanthine was added per well for an additional 24 h. Parasites were harvested on a glass-fiber filter with a Microbeta FilterMate cell harvester (Perkin Elmer, Waltham, USA) and radioactivity was counted using a MicroBeta2 liquid scintillation counter (Perkin Elmer, Waltham, US). […] The fifty percent inhibitory concentration (IC50) was calculated by using nonlinear, four parameter (variable slope) curve fitting as described ^[33^] after importing into GraphPad Prism (version 8.3.0).
31 was used for resistance selection studies using the strain Dd2b2 (kindly provided by David Fidock). Resistance selection was done as described in ^[34^]. As summarized in Table S3, an initial inoculum of 2 x 10^9 asexual blood stage parasites (at 2-2.5% parasitemia) were cultured in three independent flasks. […] Cloning via limiting dilution was performed to obtain resistant clones for further characterization as described in section 2.2.5.

Dd2b2^pfmdr1 G182S = assay type: cell-based, Plasmodium falciparum; settings: Dd2b2^pfmdr1 G182S vs Dd2b2^WT
Procedure: (§2) ^[a] 72-h [^3H] hypoxanthhine incorporation assay; Data is expressed as mean±s.d. The assay was performed in three independent biological experiments, each in biological duplicates
as §1

Dd2b2^pfmdr1 K1065N = assay type: cell-based, Plasmodium falciparum; settings: Dd2b2^pfmdr1 K1065N vs Dd2b2^WT
Procedure: as §2
(§3) P. falciparum asexual blood stage parasites were cultured in human red blood cells (RBC, Blutspende SRK, Zurich) at a hematocrit of 5% in RPMI 1640 medium. The RPMI 1640 medium (ThermoFisher Scientific #51800−043) was supplemented with the following: 24 mM NaHCO3 (pH 7.3, Sigma-Aldrich #31437−500G-R), 25 mM Hepes (Sigma-Aldrich #H4034−500G), 0.36 mM hypoxanthine (Sigma-Aldrich # H9377−25G), 100 µg mL^-1 neomycin (Sigma-Aldrich #N6386−100G) and 0.5% Albumax II (Thermo Fisher #11021−045). Additionally, 2 mM choline chloride (279 mg/L, Sigma-Aldrich #C7527−100G) was added to the culture to block the induction of sexual commitment as described. ^[31^] The RPMI 1640 medium and components were dissolved in water (Milli-Q purified), stirred for at least 3 h, and then sterile filtered (0.22 μm pore size) with a bottle top filter (Corning # 431118). Parasite cultures were maintained in an atmosphere of 3% O2, 4% CO2, and 93% N2 in air-tight chambers at 37 °C. The [^3H]-hypoxanthine incorporation assay was used to test compound activity in the specific parasite lines as described.^[32^] Briefly, compounds were dissolved in DMSO (10 mM) and diluted in a hypoxanthine-free culture medium. A limiting dilution was performed over a 64-fold range (6-step twofold dilution) in a 96-well plate in duplicates. For every starting concentration, a limiting dilution was performed over a 64-fold range (6-step twofold dilution) in a 96-well plate in two biological duplicates. Parasites were added at 100 µL to each well containing the compound to obtain a final parasitemia of 0.3% and haematocrit of 1.25%. The plates were incubated for 48 h before 0.25 µCi of [^3H]-hypoxanthine was added per well for an additional 24 h. Parasites were harvested on a glass-fiber filter with a Microbeta FilterMate cell harvester (Perkin Elmer, Waltham, USA) and radioactivity was counted using a MicroBeta2 liquid scintillation counter (Perkin Elmer, Waltham, US). The results were recorded, processed by subtraction of the mean background signal obtained from the uninfected RBC controls and expressed as percentage of untreated controls. The fifty percent inhibitory concentration (IC50) was calculated by using nonlinear, four parameter (variable slope) curve fitting as described ^[33^] after importing into GraphPad Prism (version 8.3.0).

3D7^WT = experiment: [3H]-hypoxanthine incorporation assay; assay type: cell-based; settings: Plasmodium falciparum, read-out: 3D7^WT IC50
Procedure: (§4) ^[a] 72-h [^3H] hypoxanthhine incorporation assay; Data is expressed as mean±s.d.. The assay was performed in three independent biological experiments, each in biological duplicates.
as §3

3D7^Cas9 pfmdr1 G182S = assay type: cell-based, Plasmodium falciparum; settings: 3D7^Cas9 pfmdr1 G182S vs 3D7^WT
Procedure: as §4, §3
The P. falciparum 3D7 wild type parasites in the ring stage were transfected as described.^[20] Infected RBCs collected from a 5 ml culture of synchronous ring stage parasites (5-6% parasitemia at ) were added to 250 µl of packed RBCs and were co-transfected with 50µg of Cas9 and 50 µg of donor plasmids using a Bio-Rad Gene Pulser Xcell Electroporation System (single exponential pulse, 310 V, 250 µF). 24 hours post-transfection, 5 nM WR99210 (MedChemExpress #HY-116387) was added to the culture medium for six days to select for gene-edited parasites, and henceforth parasites were maintained in normal culture medium until a stably propagating parasite population was obtained. After ~4 weeks post-transfection, stably propagating parasite population were obtained. The transgenic parasite line (3D7^pfmdr1 G182S) was cloned out using an established plaque assays via limiting dilution.^[35^] […]

[1] = tested on: P. falciparum NF54 strain; experiment: [3H]-hypoxanthine incorporation assay, asexual blood stage; assay type: cell-based, Plasmodium falciparum; settings: Plasmodium falciparum, NF54, asexual blood stage; mean ± s.d.; read-out: PfNF54 IC50 ± s.d.
Procedure: as §1

[2] = Metabolic stability in liver S9 fractions; assay type: in vitro ADME; settings: pooled mouse liver S9 fraction; 1 μM compound, 1 mg/mL pooled mouse liver S9, 37 °C; read-out: t1/2 Mouse Liver S9
Procedure: To evaluate phase I and phase II metabolic stability, the compound (1 μM) was incubated at 37 °C for 240 min with 1 mg/mL pooled mouse liver S9 fraction (Xenotech, Kansas City, USA), 2 mM NADPH, 1 mM UDPGA, 10 mM MgCl2, 5 mM GSH and 0.1 mM PAPS. Metabolic stability of reference compounds: testosterone, verapamil and ketoconazole was determined in parallel to confirm the enzymatic activity of mouse S9 fractions. At defined time points, the incubation was stopped by precipitation of aliquots of S9 enzymes with 2 volumes of cold acetonitrile containing internal standard (150 nM diphenhydramine or 15 nM for Altis Plus measurements). Samples were kept on ice until the end of the incubation, after which precipitated protein was removed by centrifugation (15 min, 4 °C, 4,000 g).

HepG2 = experiment: Cytotoxicity assay (MTT); assay type: cell-based, human; settings: Homo sapiens, HepG2; 100 µM, 48 h, MTT
Procedure: HepG2 (2x10^4 cells per well) were seeded in 96-well flat-bottom culture plates in 100 µL of culture medium (DMEM containing 10% fetal calve serum and 1% penicillin-streptomycin). After 24 hours, the medium was replaced by fresh medium containing test compounds in a final DMSO concentration of 1%. […] Epirubicin and doxorubicin were used as positive controls in serial dilutions starting from 10 µM, and rifampicin was used as a negative control (at 100 µM). Cell viability was determined 48 h after treatment with compounds by adding 0.1 volumes of 3-(4,5-dimethylthiazol-2-yl)-2,5-diphenyltetrazolium bromide (MTT) solution (5 mg/mL sterile PBS) (Sigma, St. Louis, MO) to the wells. After incubating the cells for 30 min at 37 °C (atmosphere containing 5% CO2), medium was removed and MTT crystals were dissolved in 75 µL of a solution containing 10% SDS and 0.5% acetic acid in DMSO. The optical density (OD) of the samples was measured photometrically at 570 nm in a PHERAstar Omega plate reader (BMG labtech, Ortenberg, Germany). Percent viability was calculated by normalizing sample ODs to those of the DMSO controls. Each compound was tested in at least two independent experiments and CC50 values were determined using the nonlinear regression function of GraphPad Prism 10 (GraphPad Software, San Diego, CA, USA).

In the case of `CCN(CC)Cc1cc(Nc2ccnc3cc(Cl)ccc23)ccc1O` [Amodiaquine, amodiaquine, reference compound], the IC50 (Dd2b2^WT) is reported as 0.8 ± 0.2 nM, the “IC50 fold shift relative to parental clone” value (Dd2b2^pfmdr1 G182S) is reported as 1.1 and the “IC50 fold shift relative to parental clone” value (Dd2b2^pfmdr1 K1065N) is reported as 1.2. The IC50 (3D7^WT; 3D7, 72-h assay, mean±s.d.) was 0.8 ± 0.2 nM and the “IC50 fold shift relative to 3D7^WT strain” value (3D7^Cas9 pfmdr1 G182S) was 1.2.
For `CCN(CC)CCCC(C)Nc1ccnc2cc(Cl)ccc12` (stereo not shown) [Chloroquine, chloroquine, reference compound], the IC50 (Dd2b2^WT) was 22.3 ± 1.3 nM and the IC50 (3D7^WT; 3D7, 72 h) was 1.9 ± 0.1 nM.
With `CC(C)(C)c1ccc(O)c(NC(=O)c2cccc(Oc3cc(C(F)(F)F)ccn3)c2)c1` [Compound 24, N-(5-(tert-Butyl)-2-hydroxyphenyl)-3-((4-(trifluoromethyl)pyridin-2-yl)oxy)benzamide] the IC50 [1] was 17 ± 3 nM and the half-life at 1 µM [2] was 5.4 ± 0.5 min.
With `CCN(CC)Cc1ccc(O)c(NC(=O)c2cccc(Oc3cc(C(F)(F)F)ccn3)c2)c1` [Compound 27, N-(5-((diEthylamino)methyl)-2-hydroxyphenyl)-3-((4-(trifluoromethyl)pyridin-2-yl)oxy)benzamide] the IC50 [1] was 11 ± 3.4 nM, the IC50 (Dd2b2^WT) was 3.5 ± 0.7 nM and the “IC50 fold shift relative to parental clone” value (Dd2b2^pfmdr1 G182S) was 10.6. For the same molecule, the “IC50 fold shift relative to parental clone” value (Dd2b2^pfmdr1 K1065N) was 9.4, the IC50 (3D7^WT; 3D7, 72-h assay, mean±s.d.) was 2.2 ± 0.2 nM and the “IC50 fold shift relative to 3D7^WT strain” value (3D7^Cas9 pfmdr1 G182S) was 1.5.
Molecule `O=C(Nc1cc(CN2CCOCC2)ccc1O)c1cccc(Oc2cc(C(F)(F)F)ccn2)c1` [Compound 30, N-(2-Hydroxy-5-(morpholinomethyl)phenyl)-3-((4-(trifluoromethyl)pyridin-2-yl)oxy)benzamide] has an IC50 [1] of 10 ± 1.8 nM, a half-life at 1 µM [2] of 28.1 ± 5.5 min and an inhibition at 100 µM (HepG2) of 45 ± 21%. For the same molecule, the IC50 (Dd2b2^WT) was 5.2 ± 0.3 nM, the “IC50 fold shift relative to parental clone” value (Dd2b2^pfmdr1 K1065N) was 11.8 and the IC50 (3D7^WT; 3D7, 72-h assay, mean±s.d.) was 2.6 ± 0.5 nM.
In the case of `O=C(Nc1cc(CN2CCOCC2)cc(F)c1O)c1cccc(Oc2cc(C(F)(F)F)ccn2)c1` [Compound 32, N-(3-Fluoro-2-hydroxy-5-(morpholinomethyl)phenyl)-3-((4-(trifluoromethyl)pyridin-2-yl)oxy)benzamide], the IC50 [1] is reported as 21.6 ± 2.65 nM, the half-life at 1 µM [2] is reported as 18.4 ± 4.2 min and the inhibition at 100 µM (HepG2) is reported as 51 ± 1%.
`O=C(Nc1cc(CN2CCOCC2)cc(Cl)c1O)c1cccc(Oc2cc(C(F)(F)F)ccn2)c1` [Compound 33, N-(3-Chloro-2-hydroxy-5-(morpholinomethyl)phenyl)-3-((4-(trifluoromethyl)pyridin-2-yl)oxy)benzamide] gave an IC50 [1] of 63 ± 7.4 nM, a half-life at 1 µM [2] of 49.9 ± 4 min and an inhibition at 100 µM (HepG2) of 66 ± 2%.
For `CCCCN(CCCC)CC(O)c1cc(Cl)cc2c1-c1ccc(Cl)cc1/C2=C/c1ccc(Cl)cc1` (stereo not shown) [Lumefantrine, lumefantrine, reference compound], the IC50 (Dd2b2^WT) was 1.6 ± 0.8 nM, the “IC50 fold shift relative to parental clone” value (Dd2b2^pfmdr1 G182S) was 0.4 and the “IC50 fold shift relative to parental clone” value (Dd2b2^pfmdr1 K1065N) was 0.8. The IC50 (3D7^WT; 3D7, 72-h assay, mean±s.d.) was 1.6 ± 0.8 nM and the “IC50 fold shift relative to 3D7^WT strain” value (3D7^Cas9 pfmdr1 G182S) was 0.8.
In the case of `OC(c1cc(C(F)(F)F)nc2c(C(F)(F)F)cccc12)C1CCCCN1` (stereo not shown) [Mefloquine, mefloquine, reference compound], the IC50 (Dd2b2^WT) is reported as 1.1 ± 0.2 nM, the “IC50 fold shift relative to parental clone” value (Dd2b2^pfmdr1 G182S) is reported as 0.3 and the “IC50 fold shift relative to parental clone” value (Dd2b2^pfmdr1 K1065N) is reported as 0.8. The IC50 (3D7^WT; 3D7, 72-h assay, mean±s.d.) was 1.4 ± 0.5 nM and the “IC50 fold shift relative to 3D7^WT strain” value (3D7^Cas9 pfmdr1 G182S) was 1.3.
